The values below come from paper PMC12830207, “Targeting the protein–protein interaction between the CDC37 cochaperone and client kinases by an allosteric RAF dimer breaker” (The Journal of Biological Chemistry, 2025).

Data set [1] deals with HCT116 cells. As to the kind of experiment: WST-1 cell viability assay, HCT116. It is filed as cell-based. The note with it: HCT116, no braftide, 24 h, WST-1; read-out: EC50 of 17-AAG alone, HCT116. In general terms: Tetrazolium assays rely on reduction of a dye to a coloured formazan, in cell work by metabolically active cells.
Procedure: HCT116 and WM3629 cells were seeded onto polylysine-coated, clear-bottomed, 96-well plates at 15(10)^3 cells per well and allowed to incubate for 24 h. Cells were treated with braftide and 17-AAG mixtures at indicated concentrations for 24 h (37 °C). The WST-1 cell viability assay was carried out according to the manufacturer's protocols (Roche; 11644807001) for 4 h, and absorbance readings were taken at 450 nM in a CLARIOstar plate reader. For the dose–response curves of braftide and 17-AAG, the data were fit to the 4-parameter logistic equation (dose–response fitting equation) in GraphPad Prism (Dotmatics): y=A1+(A2−A1)÷(1+10^(LOGx0−x)p)
Error bars are indicative of the SEM of each point.
The subject of data set [2] is MAPK proteins (BRAF, CRAF, MEK, pMEK, ERK, pERK). Nature of the data set: Immunoblot of MAPK proteins in HCT116 cells. It is filed as cell-based. The method, then: (§1) Western blot band densities were quantified with ImageJ software (National Institutes of Health) and normalized to the indicated loading control. Statistical significance was determined through one-/two-way ANOVA, where indicated, followed by Tukey's honest significant difference post hoc test with corresponding p values (∗p < 0.05, ∗∗p < 0.002, ∗∗∗p < 0.0002, and ∗∗∗∗p < 0.0001). All graph bars represent the mean ± SD with individual data points per biological replicate with corresponding p values.

The test system of data set [3] is HSP90. As to conditions: cited from earlier work. From the text:
However, this approach often requires high dosages, making cells more susceptible to thermal damage and inducing HSR1 expression ([10]). […] ATP competitive inhibitors for RAF kinase encou ...

For data set [4], the system named is BRAF–CDC37 interaction. Nature of the data set: NanoBiT luminescence CDC37–RAF interaction reporter assay, BRAF^SmBiT–CDC37^LgBiT. It counts as cell-based, human (HEK293). The note with it: HEK293, 10 µM vemurafenib, 4 hrs, Fig. S8. From the text:
NanoBiT cytomegalovirus MCS BiBiT vector, which contains a BRAF N terminal fused with LgBiT and CRAF N terminal fused with SmBiT, was purchased from Promega. CDC37 LgBiT and CRAF SmBiT was generated using the standard Gibson Assembly (NEB HiFi Assembly) using NanoBiT BiBiT as the vector and following primers: 5′ […] 3′, 5′ […] 3′, 5′ […] 3′, 5′ […] 3′, and CDC37 LgBiT and BRAF SmBiT was generated using the standard Gibson Assembly using NanoBiT BiBiT as the vector and following primers: 5′ […] 3′, 5′ […] 3′, 5′ […] 3′, 5′ […] 3′. Primers were designed to introduce H20A, N22A, I23A triple mutation within the CDC37 FLAG tag and for NanoBiT construct CDC37(HNI/A) LgBit and BRAF SmBiT. Primers were designed to introduce the desired substitutions. The forward primer sequence was 5′ gccgcc[…] 3′, and the reverse primer sequence was 5′ gggggc[…] 3′. Site-directed mutagenesis was carried out using the Q5 Site-Directed Mutagenesis Kit (NEB; E0554) following the manufacturer's protocol.
Twenty-four hours post-transfection, cells were trypsinized, pelleted, resuspended in OptiMEM + 4% fetal bovine serum, and reseeded onto a 96-well plate at 5(10)^4 cells per well and then incubated at 37 °C overnight. Cells were pretreated with 1 μM bortezomib for 5 h and then braftide for 4 h at 0 and 25 μM. After treatment, 10 μM furimazine substrate was added to each well, and luminescence readings were taken at 470 to 480 nm using a CLARIOstar plate reader. Statistical significance was determined through a paired t test where indicated, followed by Tukey's honest significant difference post hoc test with corresponding p values (∗p < 0.05, ∗∗p < 0.01, and ∗∗∗p < 0.001). All graph bars represent the mean ± SD with individual data points per biological replicate with corresponding p values.

Data set [5] has as its system ERK. The note with it: cited from earlier work. From the text:
The RAF kinase family, comprising ARAF, BRAF, and CRAF, is one of the well-studied clients of CDC37. RAF kinase is a core component of the mitogen-activated protein kinase (MAPK) (RAS–RAF–mitogen-activated protein kinase kinase [MEK]–extracellular signal–regulated kinase [ERK]) pathway, governing cell proliferation, survival, senescence, differentiation, and migration ([18]). […] While ATP-competitive inhibitors like vemurafenib, dabrafenib, and encorafenib ...

The test system of data set [6] is HSP90–CDC37 complex. As to conditions: cited from earlier work. From the text:
Unlike conventional HSP90 inhibitors, braftide preserves HSP90 activity while disrupting CDC37–client interactions, minimizing cytotoxicity and enhancing therapeutic precision. Braftide's ability to destabilize RAF through CDC37 inhibition may offer an alternative to high-dose HSP90 inhibitors, mitigating their associated side effects. […] While most HSP90–CDC37 inhibitors focus on HSP90 ATP-competitive inhibition ([6]), emerging ...

In data set [7] the test system is MAPK proteins / pERK. Nature of the data set: Immunoblot of protein degradation and pERK with control peptide in HEK293. As to conditions: HEK293 cotransfected with CDC37 and RAF (Fig. S2A). It counts as cell-based, human (HEK293). The method, then:
as §1

The subject of data set [8] is CDC37. As to the kind of experiment: Photo-crosslinking and streptavidin pull-down, CDC37. It counts as binding, human (HEK293). The note with it: 10 μM peptide, lysate of HEK293 with CDC37-FLAG/BRAF-V5, 4 h, 4 °C, UV 1 h, streptavidin. The procedure: (§2) Transfected HEK293 cells were treated with the indicated treatments and harvested in cold PBS. The cell pellets were lysed in modified RIPA buffer (50 mM Hepes [pH 7.4], 150 mM sodium chloride, 0.1% NP-40 [IGEPAL630], 1 mM EDTA, 5% glycerol, 1 mM PMSF, 20 mM β-glycerophosphate, 2.5 mM sodium pyrophosphate, and 1 protease inhibitor tablet) and incubated with rotation for 2 h, 4 °C. Cell lysates were then incubated with resin (FLAG-M2 magnetic, Sigma [M8823] or streptavidin, Pierce [88816]) for 2 h to bind the tagged BRAF–CRAF or BTN–braftide-crosslinked proteins. The samples were washed five times in a modified RIPA buffer and quenched in loading dye (BTN IP elution was supplemented with 20 mM biotin in loading dye) and heated at 95 °C, 5 min. Samples were analyzed via immunoblot.
(§3) HEK293 cells were cotransfected with CDC37 (FLAG-tagged) and BRAF (V5-tagged). Cells were harvested in cold PBS, and pellets were lysed in modified RIPA buffer with rotation for 2 h, 4 °C. Cell lysate (1 mg) was incubated with 0 or 10 μM BTN–braftide/JAK2, with rotation for 4 h, at 4 °C. Samples were then exposed to […] UV light for 1 h over ice. After UV treatment, samples were incubated with Pierce Streptavidin magnetic beads (catalog no.: 88816) for 17 h at 4 °C, to bind BTN–braftide. […] Samples were analyzed via immunoblot.

The subject of data set [9] is BRAF. As to the kind of experiment: Photo-crosslinking and streptavidin pull-down, BRAF. It is filed as binding, human (HEK293). As to conditions: 10 μM peptide, lysate of HEK293 with CDC37-FLAG/BRAF-V5, 4 h, 4 °C, UV 1 h, streptavidin. The procedure:
as §2, §3

The subject of data set [10] is HSP90. Nature of the data set: Photo-crosslinking and streptavidin pull-down, HSP90. It is filed as binding, human (HEK293). As to conditions: 10 μM peptide, HEK293 lysate, 4 h, 4 °C, UV 1 h, streptavidin. The method, then: as §2, §3
In data set [11] the test system is CRAF. As to the kind of experiment: Photo-crosslinking and streptavidin pull-down, endogenous CRAF. As to conditions: 10 μM peptide, HEK293 lysate, 4 h, 4 °C, UV 1 h, streptavidin. It counts as binding, human (HEK293). The procedure:
as §2, §3

Data set [12] deals with AKT1. Nature of the data set: Photo-crosslinking and streptavidin pull-down, AKT1. It counts as binding, human (HEK293). The note with it: 10 μM peptide, HEK293 lysate, 4 h, 4 °C, UV 1 h, streptavidin. The method, then:
as §2, §3

Data set [13] deals with HSP90 (endogenous, HEK293), P07900. As to the kind of experiment: co-immunoprecipitation (IP: FLAG), immunoblot band quantification. The note with it: chain shown with the change, representative blot.

A word on the EC50: it is the midpoint of the concentration-response curve. In the case of `C=CCNC1=C2C[C@@H](C)C[C@H](OC)[C@H](O)[C@@H](C)/C=C(\C)[C@H](OC(N)=O)[C@@H](OC)/C=C\C=C(/C)C(=O)NC(=CC1=O)C2=O` [17-AAG, 17-N-allylamino-17-demethoxygeldanamycin, reference compound], the EC50 in data set [1] was over 5 µM. Besides, in data set [2] (HCT116, 500 nM 17-AAG + 500 nM braftide, immunoblot, n = 3), the “CRAF degradation and MAPK signaling, combination” value was “significant degradation of CRAF kinase and downregulation of MAPK signaling”. The “inhibition by monotherapy at 500 nM” value in data set [2] (HCT116, 500 nM single agent, immunoblot) is given as “Neither 17-AAG nor braftide monotherapy exhibited obvious inhibition”. In addition, the “concentration at which CRAF kinase level is depleted, 17-AAG monotherapy” value in data set [2] (HCT116, 17-AAG alone, 16 h, immunoblot) came to 2 µM. Moreover, in data set [3], the “cytotoxicity in clinical trials” value is “its clinical trials faced challenges because of high cytotoxicity”.

Regarding `CCCS(=O)(=O)Nc1ccc(F)c(C(=O)c2c[nH]c3ncc(-c4ccc(Cl)cc4)cc23)c1F` [Vemurafenib, reference compound], the “NanoBiT BRAF–CDC37 interaction, vemurafenib” value in data set [4] is “disrupted the interaction between BRAF and CDC37 in the NanoBiT assay”. Further, the “paradoxical activation of downstream ERK” value in data set [5] is listed as “can lead to paradoxical activation of downstream ERK under certain conditions”.

`CC1=C[C@H](C)C[C@H](C)[C@H](Cc2cnco2)OC(=O)/C(C)=C\[C@H](C)C[C@H](C)[C@H](Cc2cnco2)OC1=O` [conglobatin A]: the “dissociation of HSP90–CDC37 complex” value in data set [6] is reported as “allosterically dissociate the HSP90–CDC37 complex”.

As for `CC(C)(C)c1nc(-c2cccc(NS(=O)(=O)c3c(F)cccc3F)c2F)c(-c2ccnc(N)n2)s1` [dabrafenib], the “paradoxical activation of downstream ERK” value in [5] was “can lead to paradoxical activation of downstream ERK under certain conditions”.

Turning to `COC(=O)N[C@@H](C)CNc1nccc(-c2cn(C(C)C)nc2-c2cc(Cl)cc(NS(C)(=O)=O)c2F)n1` [encorafenib], the “paradoxical activation of downstream ERK” value in data set [5] is “can lead to paradoxical activation of downstream ERK under certain conditions”.

On to `C[C@@H]1O[C@@H](O[C@H]2[C@H](OC(=O)[C@]34CCC(C)(C)C[C@H]3C3=CC[C@@H]5[C@@]6(C)C[C@H](O)[C@H](O[C@@H]7O[C@H](CO)[C@@H](O)[C@H](O)[C@H]7O)C(CO)(CO)[C@@H]6CC[C@@]5(C)[C@]3(C)C[C@H]4O)OC[C@H](O)[C@@H]2O)[C@H](O)[C@H](O)[C@H]1O[C@@H]1OC[C@@H](O)[C@H](O[C@@H]2OC[C@](O)(CO)[C@H]2O)[C@H]1O` [platycodin D], for which, in data set [6], the “dissociation of HSP90–CDC37 complex” value is “allosterically dissociate the HSP90–CDC37 complex”.

For the molecule “Biotin-GRKKRRQRRRPQ-miniPEG-SxQHDNIVKY [BTN–JAK2, biotinylated control peptide derived from the αC helix–β4 loop of the JAK2 kinase, same TAT-miniPEG fragment, reference compound]”, in [7], the “protein degradation and pERK levels with control peptide” value was “did not induce protein degradation or reduce pERK levels”. Also, in data set [8], the “co-immunoprecipitation of CDC37 with biotinylated peptide” value is “did not coimmunoprecipitate BRAF, CDC37, or HSP90 under the same conditions”. Moreover, the “co-immunoprecipitation of BRAF with biotinylated peptide” value in data set [9] is on record as “did not coimmunoprecipitate BRAF, CDC37, or HSP90 under the same conditions”. The “co-immunoprecipitation of HSP90 with biotinylated peptide” value in [10] is “did not coimmunoprecipitate BRAF, CDC37, or HSP90 under the same conditions”.

On to “Biotin-GRKKRRQRRRPQ-miniPEG-TRHVNILxFM [BTN–braftide]”, for which the “co-immunoprecipitation of endogenous CRAF with biotinylated peptide” value in data set [11] is “coimmunoprecipitated CDC37, BRAF, and endogenous CRAF”. Also, the “co-immunoprecipitation of CDC37 with biotinylated peptide” value in data set [8] is “coimmunoprecipitated CDC37, BRAF, and endogenous CRAF”. Moreover, the “co-immunoprecipitation of BRAF with biotinylated peptide” value in data set [9] was “coimmunoprecipitated CDC37, BRAF, and endogenous CRAF”. Further, in data set [10], the “co-immunoprecipitation of HSP90 with biotinylated peptide” value is on record as “Neither AKT1 nor HSP90 was pulled down in this assay”. In data set [12], the “co-immunoprecipitation of AKT1 with biotinylated peptide” value is “Neither AKT1 nor HSP90 was pulled down in this assay”.

“GRKKRRQRRRPQ-miniPEG-SLQHDNIVKY [TAT–JAK2, negative control peptide derived from the αC helix–β4 loop of the JAK2 kinase, reference compound]”: the “MAPK proteins with control peptide” value in data set [2] (HCT116, 4 h, Fig. S2A) was “MAPK proteins are unaffected by control peptide”.

For “GRKKRRQRRRPQ-miniPEG-THHVNILLFM [R/H peptide]”, the “protein degradation of BRAF, CRAF, MEK, and ERK” value in data set [2] (HCT116, braftide^R2H, 4 h, immunoblot) was “failed to induce protein degradation of BRAF, CRAF, MEK, and ERK”. Moreover, the “impact on MAPK signaling” value in data set [2] (HCT116, braftide^R2H, 4 h, pMEK and pERK immunoblot) is recorded as “had no impact on MAPK signaling in HCT116 cells”.

B1: CDC37-myc-FLAG, Q16543 H20A; N22A; I23A (protein)
chain: MVDYSVWDHIEVSDDEDETAPAADTASLFRWRHQARVERMEQFQKEKEELDRGCRECKRKVAECQRKLKELEVAEGGKAELERLQAEAQQLRKEERSWEQKLEEMRKKEKSMPWNVDTLSKDGFSKSMVNTKPEKTEEDSEEVREQKHKTFVEKYEKQIKHFGMLRRWDDSQKYLSDNVHLVCEETANYLVIWCIDLEVEEKCALMEQVAHQTIVMQFILELAKSLKVDPRACFRQFFTKIKTADRQYMEGFNDELEAFKERVRGRAKLRIEKAMKEYEEEERKKRLGPGGLDPVEVYESLPEELQKCFDVKDVQMLQDAISKMDPTDAKYHMQRCIDSGLWVPNSKASEAKEGEEAGPGDPLLEAVPKTGDEKDVSV
In the case of B1, the ratio to parent in data set [13] (HEK293 cells coexpressing BRAF-V5) was determined as 1.01; in data set [13] (HEK293 cells coexpressing CRAF-HA), 0.91.
